Test results published in patent US20060280817A1, “Pharmaceutical composition useful for the treatment of hepatocellular carcinoma” (priority 2005, published 2006).

Tests used:
NIH OVCAR5 = assay: In vitro cytotoxicity (SRB), NIH OVCAR5; format: cell-based; conditions: Homo sapiens, OVCAR-5; NIH OVCAR5, 1 × 10^−5 M, 48 h; read-out: percent growth inhibition
Experimental: (§1) The human cancer cell lines procured from National Cancer Institute, Frederick, U.S.A or National Center for Cell Science; Pune, India. were used in present study. Cells were grown in tissue culture flasks in complete growth medium (RPMI-1640 medium with 2 mM glutamine, 100 μg/ml streptomycin, pH 7.4, sterilized by filtration and supplemented with 10% fetal calf serum and 100 units/ml penicillin before use) at 37° C. in an atmosphere of 5% CO2 and 90% relative humidity in a carbon dioxide incubator. The cells at subconfluent stage were harvested from the flask by treatment with trypsin (0.5% in PBS containing 0.02% EDTA) for determination of cytotoxicity. Cells with viability of more than 98% as determined by trypan blue exclusion were used for assay. […]
(§2) A stock solutions of (20 mg/ml) of test material were prepared in distilled water. […] In vitro cytotoxicity against human cancer cell lines was determined (Monks, A., Scudiero, D., Skehan, P., Shoemaker R., Paull, K., Vistica, D., Hose, C., Langley, j., Cronise, P., Vaigro-Wolff, A., Gray-Goodrich, M., Campbell, H., Mayo, J and Boyd, M. (1991). Feasibility of a high-flux anticancer drug screen using a diverse panel of cultured human tumor cell lines. J. Natl. Cancer Inst. 83, 757-766.) using 96-well tissue culture plates. […] The optical density (OD) was recorded on ELISA reader at 540 nm. […]

SK N MC = assay: In vitro cytotoxicity (SRB), SK N MC; format: cell-based; conditions: Homo sapiens, 1 × 10^−5 M, 48 h, read-out: percent growth inhibition
Experimental: as §1, §2

A 549 = assay: In vitro cytotoxicity (SRB), A 549; format: cell-based, human; conditions: A 549, 1 × 10^−5 M, 48 h
Experimental: as §1, §2

KB = assay: In vitro cytotoxicity (SRB), KB; format: cell-based, human; conditions: 2 × 10^−5 M, 48 h
Experimental: as §1, §2

HCT 15 = assay: In vitro cytotoxicity (SRB), HCT 15; format: cell-based, human; conditions: 48 h
Experimental: (§3) The human cancer cell lines procured from National Cancer Institute, Frederick, U.S.A or National Center for Cell Science; Pune, India. were used in present study. Cells were grown in tissue culture flasks in complete growth medium (RPMI-1640 medium with 2 mM glutamine, 100 μg/ml streptomycin, pH 7.4, sterilized by filtration and supplemented with 10% fetal calf serum and 100 units/ml penicillin before use) at 37° C. in an atmosphere of 5% CO2 and 90% relative humidity in a carbon dioxide incubator. The cells at subconfluent stage were harvested from the flask by treatment with trypsin (0.5% in PBS containing 0.02% EDTA) for determination of cytotoxicity. Cells with viability of more than 98% as determined by trypan blue exclusion were used for assay. The cell suspension of the required cell density was prepared in complete growth medium with gentamycin (50 μg/ml) for determination of cytotoxicity.
(§4) A stock solutions of (20 mg/ml) of test material were prepared in distilled water. The stock solutions were serially diluted with complete growth medium containing 50 μg/ml of gentamycin to obtain working test solutions of required concentrations. In vitro cytotoxicity against human cancer cell lines was determined (Monks, A., Scudiero, D., Skehan, P., Shoemaker R., Paull, K., Vistica, D., Hose, C., Langley, j., Cronise, P., Vaigro-Wolff, A., Gray-Goodrich, M., Campbell, H., Mayo, J and Boyd, M. (1991). Feasibility of a high-flux anticancer drug screen using a diverse panel of cultured human tumor cell lines. J. Natl. Cancer Inst. 83, 757-766.) using 96-well tissue culture plates. The 100 μl of cell suspension was added to each well of the 96-well tissue culture plate. The cells were incubated for 24 hours. Test materials in complete growth medium (100 μl) were added after 24 hours incubation to the wells containing cell suspension. The plates were further incubated for 48 hours (at 37° C. in an atmosphere of […] 90% relative humidity in a carbon dioxide incubator) after addition of test material and then the cell growth was stopped by gently layering trichloroacetic acid (TCA, 50 μl, 50%) on top of the medium in all the wells. The plates were incubated at 4° C. for one hour to fix the cells attached to the bottom of the wells. The liquid of all the wells was gently pipetted out and discarded. The plates were washed five times with distilled water to remove TCA, growth medium low molecular weight metabolites, serum proteins etc and air-dried. Cell growth was measured by staining with sulforhodamine B dye (P. Skehan, R. Storeng, D. Scudiero, A. Monks, J. McMohan, D. Vistica, J. T. Warren, H. Bokesch, S. Kenney, M. R. Boyd (1990) New colorimetric cytotoxic Assay for Anticancer—Drug Screening Journal of the National Cancer Institute 82, 1107-1112). The adsorbed dye was dissolved in Tris-Buffer (100 μl, 0.01M, pH 10.4) and plates were gently stirred for 5 minutes on a mechanical stirrer. The optical density (OD) was recorded on ELISA reader at 540 nm.
(§5) The cell growth was calculated by subtracting mean OD value of respective blank from the mean OD value of experimental set. Percent growth in presence of test material was calculated considering the growth in absence of any test material as 100% and in turn percent growth inhibition in presence of test material will be calculated.
(§6) Methodology is the same as given in example 6 except for stock solutions of 1×10^−2M was prepared instead of 20 mg/ml.

HT 29 = assay: In vitro cytotoxicity (SRB), HT 29; format: cell-based, human; conditions: 48 h
Experimental: as §3, §4, §5, §6

Colo 205 = assay: In vitro cytotoxicity (SRB), Colo 205; format: cell-based, human; conditions: 48 h
Experimental: as §3, §4, §5, §6

SK N SH = assay: In vitro cytotoxicity (SRB), SK N SH; format: cell-based, human; conditions: 48 h
Experimental: as §3, §4, §5, §6

SW 620 = assay: In vitro cytotoxicity (SRB), SW 620; format: cell-based, human; conditions: 48 h
Experimental: as §3, §4, §5, §6

HOP-62 = assay: In vitro cytotoxicity (SRB), HOP-62; format: cell-based, human; conditions: 48 h
Experimental: as §3, §4, §5, §6

SiHa = assay: In vitro cytotoxicity (SRB), SiHa; format: cell-based, human; conditions: 48 h
Experimental: as §3, §4, §5, §6

IMR 32 = assay: In vitro cytotoxicity (SRB), IMR 32; format: cell-based, human; conditions: IMR 32, 1 × 10^−5 M, 48 h
Experimental: as §1, §2

DU 145 = assay: In vitro cytotoxicity (SRB), DU 145; format: cell-based, human; conditions: DU 145, 1 × 10^−5 M, 48 h
Experimental: as §1, §2

NCI-H23 = assay: In vitro cytotoxicity (SRB), NCI-H23; format: cell-based, human; conditions: NCI-H23, 1 × 10^−5 M, 48 h
Experimental: as §1, §2

NIH OVCAR 3 = assay: In vitro cytotoxicity (SRB), NIH OVCAR 3; format: cell-based, human; conditions: NIH OVCAR 3, 1 × 10^−5 M, 48 h
Experimental: as §1, §2

MCF-7 = assay: In vitro cytotoxicity (SRB), MCF-7; format: cell-based; conditions: Homo sapiens, MCF7; MCF-7, 1 × 10^−5 M, 48 h; read-out: percent growth inhibition
Experimental: as §1, §2

T 47 D = assay: In vitro cytotoxicity (SRB), T 47 D; format: cell-based; conditions: Homo sapiens, T47D, 1 × 10^−5 M, 48 h, read-out: percent growth inhibition
Experimental: as §1, §2

SNB 78 = assay: In vitro cytotoxicity (SRB), SNB 78; format: cell-based, human; conditions: SNB 78, 1 × 10^−5 M, 48 h
Experimental: as §1, §2

ZR 75-1 = assay: In vitro cytotoxicity (SRB), ZR 75-1; format: cell-based; conditions: Homo sapiens; ZR 75-1, 1 × 10^−5 M, 48 h; read-out: percent growth inhibition
Experimental: as §1, §2

SMILES	inhibition (NIH OVCAR5)	percent growth inhibition (HT 29; HT 29, 1 × 10^−5 M)	percent growth inhibition (HT 29; HT-29, 1 × 10^−4 M)	percent growth inhibition (HT 29; HT-29, 1 × 10^−6 M)	percent growth inhibition (HCT 15; HCT-15, 1 × 10^−4 M)	percent growth inhibition (HCT 15; HCT-15, 1 × 10^−5 M)	percent growth inhibition (HCT 15; HCT-15, 1 × 10^−6 M)	percent growth inhibition (Colo 205; Colo-205, 1 × 10^−4 M)	percent growth inhibition (Colo 205; Colo-205, 1 × 10^−5 M)	percent growth inhibition (Colo 205; Colo-205, 1 × 10^−6 M)	percent growth inhibition (SK N SH; SK N SH, 1 × 10^−5 M)	percent growth inhibition (SK N SH; SK-NSH, 1 × 10^−4 M)	percent growth inhibition (SK N SH; SK-NSH, 1 × 10^−6 M)	percent growth inhibition (SW 620; SW620, 1 × 10^−4 M)	percent growth inhibition (SW 620; SW 620, 1 × 10^−5 M)	percent growth inhibition (SW 620; SW620, 1 × 10^−6 M)	percent growth inhibition (HOP-62; HOP-62, 1 × 10^−4 M)	percent growth inhibition (HOP-62; HOP-62, 1 × 10^−5 M)	percent growth inhibition (HOP-62; HOP-62, 1 × 10^−6 M)	percent growth inhibition (SiHa; 1 × 10^−4 M)	further results
CC/C(=C(\c1ccccc1)c1ccc(OCCN(C)C)cc1)c1ccccc1 [Tamoxifen]	20%																				inhibition (SK N MC): 27%; percent growth inhibition (A 549): 17%
O=c1[nH]cc(F)c(=O)[nH]1 [5-Flurouracil, reference compound]																					percent growth inhibition (KB): 9%; percent growth inhibition (HCT 15; HCT 15, 2 × 10^−5 M): 50%
O=C(/C=C/c1ccc(O)c(O[C@@H]2O[C@H](CO)[C@@H](O)[C@H](O)[C@H]2O)c1)c1ccc(O[C@@H]2O[C@H](CO)[C@@H](O)[C@H](O)[C@H]2O)cc1O [Isobutrin]		10%	94%	0%	99%	21%	0%	74%	0%	0%	25%	93%	0%	85%	0%	0%	65%	0%	0%	50%	percent growth inhibition (SiHa; 1 × 10^−5 M): 0%; percent growth inhibition (SiHa; 1 × 10^−6 M): 0%
CO[C@@]12[C@H](COC(N)=O)C3=C(C(=O)C(C)=C(N)C3=O)N1C[C@@H]1N[C@@H]12 [Mitomycin C]																					percent growth inhibition (IMR 32): 83%; percent growth inhibition (DU 145): 69%; percent growth inhibition (NCI-H23): 59%; percent growth inhibition (NIH OVCAR 3): 31%
O=C1C[C@@H](c2ccc(O)c(O[C@@H]3O[C@H](CO)[C@@H](O)[C@H](O)[C@H]3O)c2)Oc2cc(O[C@@H]3O[C@H](CO)[C@@H](O)[C@H](O)[C@H]3O)ccc21 [Butrin]		11%	99%	9%	98%	26%	0%	40%	0%	0%	8%	83%	9%	92%	0%	0%	65%	6%	0%	80%	percent growth inhibition (SiHa; 1 × 10^−5 M): 0%; percent growth inhibition (SiHa; 1 × 10^−6 M): 0%
COc1cccc2c1C(=O)c1c(O)c3c(c(O)c1C2=O)C[C@@](O)(C(=O)CO)C[C@@H]3O[C@H]1C[C@H](N)[C@H](O)[C@H](C)O1 [Adriamycin]	45%	69%													59%						inhibition (MCF-7): 72%; percent growth inhibition (IMR 32): 87%; inhibition (T 47 D): 34%; inhibition at 10 µM (SK N SH; Homo sapiens, SK N SH, 1 × 10^−5 M, read-out: percent growth inhibition): 82%; percent growth inhibition (SNB 78): 20%; inhibition (ZR 75-1): 46%
